Laboratory results as given in article PMC4941420, “A Rational Approach for the Identification of Non-Hydroxamate HDAC6-Selective Inhibitors” (Scientific Reports, 2016).

How the values were obtained:
HDAC8 = target: T1, HDAC8 (Homo sapiens, UniProt Q9BY41); experiment: In vitro enzymatic assay HDAC8 (Fluor de Lys); assay type: biochemical; settings: average of at least 2 independent experiments in duplicates ± SEM
T1 construct: purchased Sigma Aldrich or Reaction Biology Corporation
T1 sequence (Q9BY41 1-377): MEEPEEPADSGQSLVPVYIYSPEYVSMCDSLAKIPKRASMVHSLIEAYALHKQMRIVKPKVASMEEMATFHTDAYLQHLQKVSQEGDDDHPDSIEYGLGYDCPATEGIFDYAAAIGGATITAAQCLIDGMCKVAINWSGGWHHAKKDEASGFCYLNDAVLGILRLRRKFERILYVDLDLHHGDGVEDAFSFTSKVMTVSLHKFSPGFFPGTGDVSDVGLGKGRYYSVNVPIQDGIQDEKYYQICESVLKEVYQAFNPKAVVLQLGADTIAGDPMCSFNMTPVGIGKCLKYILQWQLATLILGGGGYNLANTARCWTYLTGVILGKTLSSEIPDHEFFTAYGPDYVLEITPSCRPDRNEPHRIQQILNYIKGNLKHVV

HDAC6 [1] = target: T2, HDAC6 (Homo sapiens, UniProt Q9UBN7); experiment: In vitro enzymatic assay HDAC6 (Fluor de Lys); assay type: biochemical; settings: for inhibition at 100 µM / HDAC6 % of inhibition at 100 µM: mean ± SD (n=3); for inhibition at 100 µM: read-out: HDAC6 % of inhibition at 100 µM; for IC50: average of at least 2 independent experiments in duplicates ± SEM
T2 construct: purchased Sigma Aldrich or Reaction Biology Corporation
T2 sequence (Q9UBN7 1-1215): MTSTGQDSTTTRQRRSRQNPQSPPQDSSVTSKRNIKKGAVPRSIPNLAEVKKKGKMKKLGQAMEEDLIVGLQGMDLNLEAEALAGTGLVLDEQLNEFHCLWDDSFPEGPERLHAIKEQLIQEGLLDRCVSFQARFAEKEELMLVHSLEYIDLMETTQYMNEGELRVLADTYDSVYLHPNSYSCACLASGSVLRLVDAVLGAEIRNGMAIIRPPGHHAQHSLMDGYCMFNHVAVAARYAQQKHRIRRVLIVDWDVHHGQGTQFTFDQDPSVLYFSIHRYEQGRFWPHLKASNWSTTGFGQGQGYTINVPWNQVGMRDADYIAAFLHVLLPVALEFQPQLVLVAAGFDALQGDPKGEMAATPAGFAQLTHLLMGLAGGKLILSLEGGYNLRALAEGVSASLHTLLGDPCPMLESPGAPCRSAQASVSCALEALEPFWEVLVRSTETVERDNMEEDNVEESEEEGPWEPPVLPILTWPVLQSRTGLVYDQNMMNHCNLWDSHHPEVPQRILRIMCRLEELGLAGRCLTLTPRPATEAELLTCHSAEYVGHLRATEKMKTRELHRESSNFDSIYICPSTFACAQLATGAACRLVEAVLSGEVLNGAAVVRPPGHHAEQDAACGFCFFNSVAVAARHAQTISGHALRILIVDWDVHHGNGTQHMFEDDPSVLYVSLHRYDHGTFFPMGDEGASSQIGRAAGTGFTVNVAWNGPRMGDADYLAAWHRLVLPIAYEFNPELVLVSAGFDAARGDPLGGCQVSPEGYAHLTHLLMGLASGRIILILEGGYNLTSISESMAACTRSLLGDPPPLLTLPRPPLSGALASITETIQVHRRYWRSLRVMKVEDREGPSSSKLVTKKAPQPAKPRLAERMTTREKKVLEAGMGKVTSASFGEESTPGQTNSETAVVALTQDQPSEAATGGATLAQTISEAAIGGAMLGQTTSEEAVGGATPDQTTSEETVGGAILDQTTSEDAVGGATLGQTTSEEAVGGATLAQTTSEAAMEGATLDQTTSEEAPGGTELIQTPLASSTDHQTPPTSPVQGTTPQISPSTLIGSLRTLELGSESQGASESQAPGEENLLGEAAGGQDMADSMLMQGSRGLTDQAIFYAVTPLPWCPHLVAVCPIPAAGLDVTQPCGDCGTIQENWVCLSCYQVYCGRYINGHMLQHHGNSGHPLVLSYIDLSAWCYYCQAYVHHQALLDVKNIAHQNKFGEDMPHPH

HDAC2 = target: T3, HDAC2 (Homo sapiens, UniProt Q92769); experiment: In vitro enzymatic assay HDAC2 (Fluor de Lys); assay type: biochemical; settings: average of at least 2 independent experiments in duplicates ± SEM
T3 construct: purchased Sigma Aldrich or Reaction Biology Corporation

HDAC4 = target: T4, HDAC4 (Homo sapiens, UniProt P56524); experiment: In vitro enzymatic assay HDAC4 (Fluor de Lys); assay type: biochemical; settings: average of at least 2 independent experiments in duplicates ± SEM
T4 construct: purchased Sigma Aldrich or Reaction Biology Corporation

[2] = system: class I HDACs (HeLa nuclear extracts); experiment: HDAC activity of HeLa nuclear extracts (Fluor de Lys); assay type: biochemical, human; settings: 100 μM, average of at least 3 independent experiments in duplicates (Table 1)
[3] = Solubility remarks during testing; assay type: physicochemical; settings: tested at 100 µM in HDAC assay buffer
HDAC6 [4] = experiment: HDAC ChEMBL dataset / literature, enzymatic IC50 HDAC6; assay type: biochemical; settings: ratio of ChEMBL IC50 values

T4 sequence (P56524 whole entry): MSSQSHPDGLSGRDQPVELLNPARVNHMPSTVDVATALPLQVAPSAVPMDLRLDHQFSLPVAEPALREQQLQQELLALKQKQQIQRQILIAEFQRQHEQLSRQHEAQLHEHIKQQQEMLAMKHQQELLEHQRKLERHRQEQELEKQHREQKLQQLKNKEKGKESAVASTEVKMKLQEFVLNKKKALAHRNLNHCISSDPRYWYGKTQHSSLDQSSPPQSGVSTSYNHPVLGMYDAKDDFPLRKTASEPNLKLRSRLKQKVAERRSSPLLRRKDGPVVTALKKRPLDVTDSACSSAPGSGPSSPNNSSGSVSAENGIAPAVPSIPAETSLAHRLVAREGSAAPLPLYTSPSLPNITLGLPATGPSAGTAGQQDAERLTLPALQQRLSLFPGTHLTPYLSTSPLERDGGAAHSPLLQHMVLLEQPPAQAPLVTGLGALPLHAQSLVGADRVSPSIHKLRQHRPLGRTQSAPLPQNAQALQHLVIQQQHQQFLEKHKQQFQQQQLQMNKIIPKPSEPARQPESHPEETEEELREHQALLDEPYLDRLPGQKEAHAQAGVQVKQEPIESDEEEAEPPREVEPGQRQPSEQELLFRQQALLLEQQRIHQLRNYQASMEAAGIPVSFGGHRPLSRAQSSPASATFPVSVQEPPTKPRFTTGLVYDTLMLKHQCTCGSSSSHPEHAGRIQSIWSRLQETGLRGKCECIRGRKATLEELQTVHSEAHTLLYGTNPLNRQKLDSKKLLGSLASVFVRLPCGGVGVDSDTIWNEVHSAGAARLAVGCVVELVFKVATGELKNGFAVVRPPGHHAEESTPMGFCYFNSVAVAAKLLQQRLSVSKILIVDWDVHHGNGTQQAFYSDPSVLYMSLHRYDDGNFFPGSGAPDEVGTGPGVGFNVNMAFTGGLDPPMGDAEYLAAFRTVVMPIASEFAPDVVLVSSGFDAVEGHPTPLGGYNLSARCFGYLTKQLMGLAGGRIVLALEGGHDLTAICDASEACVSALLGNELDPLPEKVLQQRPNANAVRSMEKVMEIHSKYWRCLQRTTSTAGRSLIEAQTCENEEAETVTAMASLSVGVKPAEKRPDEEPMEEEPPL
T3 sequence (Q92769 whole entry): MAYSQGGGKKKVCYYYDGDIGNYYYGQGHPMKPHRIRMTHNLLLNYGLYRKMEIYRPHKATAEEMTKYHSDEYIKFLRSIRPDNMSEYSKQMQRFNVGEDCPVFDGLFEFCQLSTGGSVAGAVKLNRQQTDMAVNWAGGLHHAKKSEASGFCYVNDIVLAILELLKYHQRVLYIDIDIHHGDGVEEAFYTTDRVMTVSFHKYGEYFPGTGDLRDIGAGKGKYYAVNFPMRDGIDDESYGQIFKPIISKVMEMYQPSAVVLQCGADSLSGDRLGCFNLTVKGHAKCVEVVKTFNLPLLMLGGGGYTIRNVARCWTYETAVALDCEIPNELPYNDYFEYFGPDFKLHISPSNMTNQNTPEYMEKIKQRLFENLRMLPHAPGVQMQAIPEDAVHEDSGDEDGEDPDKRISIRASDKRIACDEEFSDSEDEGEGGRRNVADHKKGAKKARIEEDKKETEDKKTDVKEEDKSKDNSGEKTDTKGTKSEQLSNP

SMILES: NNC(=O)c1ccc(COc2ccccc2Br)cc1 [AK-18]
- IC50 (HDAC8): > 300 µM
- inhibition at 100 µM (HDAC6 [1]): 69 ± 2.4%
- IC50 (HDAC6 [1]): 16.4 ± 1.1 µM
- IC50 (HDAC2): > 1000 µM
- IC50 (HDAC4): > 300 µM
- HeLa % of inhibition at 100 μM [2]: 0.4 ± 3.9%

SMILES: Cc1cc2ccccc2n2c(SCC(=O)Nc3ccc(S(N)(=O)=O)cc3)nnc12 [AQ-1]
- HDAC6 % of inhibition at 100 µM (HDAC6 [1]): -16.4 ± 9.3%
- solubility remark in HDAC6 screening [3]: Solubility issues

SMILES: C=CCn1c(SCC(=O)Nc2ccc(S(N)(=O)=O)cc2)nnc1-c1sc(N)nc1C [AS-1]
- HDAC6 % of inhibition at 100 µM (HDAC6 [1]): -1.8 ± 11.1%

SMILES: NNC(=O)c1ccc(Cn2cc(Cl)cn2)cc1 [AK-24]
- IC50 (HDAC8): 86.9 ± 0.7 µM
- inhibition at 100 µM (HDAC6 [1]): 63.1 ± 12.2%
- IC50 (HDAC6 [1]): 74.9 ± 5.2 µM
- IC50 (HDAC2): > 200 µM
- IC50 (HDAC4): > 300 µM
- HeLa % of inhibition at 100 μM [2]: 33.3 ± 5.4%

SMILES: Cn1cc(Br)c(C(=O)NN)n1 [AK-3]
- HDAC6 % of inhibition at 100 µM (HDAC6 [1]): 0.1 ± 2.3%

SMILES: Cc1ccccc1COc1ccc(/C=N/NC(N)=S)cc1 [AH-2]
- HDAC6 % of inhibition at 100 µM (HDAC6 [1]): 12.1 ± 1.6%

SMILES: Cc1cccc(Cn2nnc3c(=O)n(CC(=O)Nc4ccc(S(N)(=O)=O)cc4)cnc32)c1 [AO-2]
- HDAC6 % of inhibition at 100 µM (HDAC6 [1]): -3.3 ± 5.4%

SMILES: Cc1nnn(C23CC4CC(CC(C(=O)NN)(C4)C2)C3)n1 [AK-19]
- HDAC6 % of inhibition at 100 µM (HDAC6 [1]): 18.1 ± 4.0%

SMILES: Cc1c(C)n(Cc2ccccc2)c2ccc(C(=O)NN)cc12 [AK-12]
- HDAC6 % of inhibition at 100 µM (HDAC6 [1]): 28.2 ± 16.7%

SMILES: Cc1nn(Cc2ccc(C(=O)NN)cc2)c(C)c1Cl [AK-2]
- IC50 (HDAC8): 140 ± 11.5 µM
- inhibition at 100 µM (HDAC6 [1]): 58 ± 1.5%
- IC50 (HDAC6 [1]): 47.9 ± 4.7 µM
- IC50 (HDAC2): > 200 µM
- IC50 (HDAC4): > 300 µM
- HeLa % of inhibition at 100 μM [2]: 10.0 ± 2.0%

SMILES: NNC(=O)C12CC3CC(C1)CC(n1cnc(Cl)n1)(C3)C2 [AK-4]
- HDAC6 % of inhibition at 100 µM (HDAC6 [1]): 3.0 ± 0.3%

SMILES: NNC(=O)c1cc2nc(-c3cccs3)cc(C(F)(F)F)n2n1 [AK-7]
- HDAC6 % of inhibition at 100 µM (HDAC6 [1]): 31.1 ± 0.5% Self-fluorescence

SMILES: NS(=O)(=O)c1ccc(N2N=C(C(F)(F)F)/C(=C/c3ccc(-c4ccc(Cl)c(Cl)c4)o3)C2=O)cc1 [AN-1]
- HDAC6 % of inhibition at 100 µM (HDAC6 [1]): -43.0 ± 11.8%

SMILES: CCOc1ccc(OCc2cccc(C(=O)NN)c2)cc1 [AK-17]
- HDAC6 % of inhibition at 100 µM (HDAC6 [1]): 35.5 ± 10.5%

SMILES: CC(C)(C)CC(C)(C)c1ccc(OCC(=O)NN)c([N+](=O)[O-])c1 [AG-4]
- HDAC6 % of inhibition at 100 µM (HDAC6 [1]): 5.5 ± 2.9%

SMILES: Cn1cccc1C(=O)N1CCc2cc(C(=O)NO)ccc2C1 [CHEMBL2431901]
- Isoform selectivity (ratio) HDAC2/HDAC6 (HDAC6 [4]): 1388.9
- Isoform selectivity (ratio) HDAC4/HDAC6 (HDAC6 [4]): 1388.9
- Isoform selectivity (ratio) HDAC8/HDAC6 (HDAC6 [4]): 58.33

SMILES: O=C(NO)c1ccc(C(=O)NCCc2ccccc2)cc1 [CHEMBL2333340]
- Isoform selectivity (ratio) HDAC2/HDAC6 (HDAC6 [4]): 151.75
- Isoform selectivity (ratio) HDAC4/HDAC6 (HDAC6 [4]): 8332.5
- Isoform selectivity (ratio) HDAC8/HDAC6 (HDAC6 [4]): 287.5

SMILES: CC(C)(C)C1CCC(C(=O)NN)CC1 (centres unmarked) [AK-23]
- HDAC6 % of inhibition at 100 µM (HDAC6 [1]): 20.2 ± 10.9%

SMILES: Cn1cccc1C(=O)N1Cc2ccc(C(=O)NO)cc2C1 [CHEMBL2431906]
- Isoform selectivity (ratio) HDAC2/HDAC6 (HDAC6 [4]): 169.2
- Isoform selectivity (ratio) HDAC4/HDAC6 (HDAC6 [4]): 84.6

SMILES: CCOc1ccc(OCc2ccc(C(=O)NN)o2)cc1 [AK-16]
- HDAC6 % of inhibition at 100 µM (HDAC6 [1]): 36.9 ± 11.3%
